# Assay results reported in ChEMBL document CHEMBL1131988, “Synthesis, SAR and in vivo activity of novel thienopyridine sulfonamide pyrrolidinones as factor Xa inhibitors” (Bioorg Med Chem Lett, 1999).
# Assays:
# [1] = target: Vitamin K-dependent protein C (Homo sapiens, UniProt P04070); test: Binding affinity against activated protein C (APC)
# Serine protease 1 = Serine protease 1 (Homo sapiens, UniProt P07477); test: Binding affinity against trypsin
# [2] = target: Tissue-type plasminogen activator (Homo sapiens, UniProt P00750); test: Binding affinity against tissue plasminogen activator (t-Pa)
# Chain of Tissue-type plasminogen activator (P00750 whole entry): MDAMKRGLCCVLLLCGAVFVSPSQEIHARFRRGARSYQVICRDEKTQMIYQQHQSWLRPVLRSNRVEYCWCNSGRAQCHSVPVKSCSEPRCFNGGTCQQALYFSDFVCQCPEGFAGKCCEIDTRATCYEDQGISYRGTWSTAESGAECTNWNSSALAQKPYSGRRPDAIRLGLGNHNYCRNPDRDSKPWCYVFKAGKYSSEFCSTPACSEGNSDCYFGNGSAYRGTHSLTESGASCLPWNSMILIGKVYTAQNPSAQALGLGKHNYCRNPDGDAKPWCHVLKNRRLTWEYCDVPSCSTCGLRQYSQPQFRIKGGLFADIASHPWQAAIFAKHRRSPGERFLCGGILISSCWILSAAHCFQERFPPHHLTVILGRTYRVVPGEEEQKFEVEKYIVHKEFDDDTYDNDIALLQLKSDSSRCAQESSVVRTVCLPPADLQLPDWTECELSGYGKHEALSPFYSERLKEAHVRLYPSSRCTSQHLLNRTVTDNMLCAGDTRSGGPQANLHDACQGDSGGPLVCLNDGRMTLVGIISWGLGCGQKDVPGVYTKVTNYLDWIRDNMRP
# Plasminogen = Plasminogen (Homo sapiens, UniProt P00747); test: Binding affinity against plasmin
# Chain of Plasminogen (P00747 97-580 limits assumed): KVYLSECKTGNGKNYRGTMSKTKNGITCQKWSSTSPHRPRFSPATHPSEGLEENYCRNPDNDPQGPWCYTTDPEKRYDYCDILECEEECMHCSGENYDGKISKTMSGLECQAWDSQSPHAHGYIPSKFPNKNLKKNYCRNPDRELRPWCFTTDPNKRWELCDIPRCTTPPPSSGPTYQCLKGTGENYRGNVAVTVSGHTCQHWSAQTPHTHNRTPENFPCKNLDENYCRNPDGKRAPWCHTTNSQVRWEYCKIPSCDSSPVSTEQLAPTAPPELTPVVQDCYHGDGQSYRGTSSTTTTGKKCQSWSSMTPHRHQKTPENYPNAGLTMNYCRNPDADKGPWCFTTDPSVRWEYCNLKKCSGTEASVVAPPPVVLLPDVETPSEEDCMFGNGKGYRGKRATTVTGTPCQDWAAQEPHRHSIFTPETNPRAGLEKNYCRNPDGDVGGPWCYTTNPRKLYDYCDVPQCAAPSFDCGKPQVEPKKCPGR
# Chain of Plasminogen (P00747 581-810 limits assumed): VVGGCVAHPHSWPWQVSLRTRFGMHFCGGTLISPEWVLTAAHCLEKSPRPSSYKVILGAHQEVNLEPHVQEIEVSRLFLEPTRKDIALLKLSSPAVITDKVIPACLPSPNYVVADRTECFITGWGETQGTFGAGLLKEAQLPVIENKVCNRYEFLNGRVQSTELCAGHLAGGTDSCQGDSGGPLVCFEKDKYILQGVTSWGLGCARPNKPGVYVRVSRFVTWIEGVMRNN
# Coagulation factor X [3] = target: T1, Coagulation factor X (Homo sapiens, UniProt P00742); test: Binding affinity against serine protease factor Xa (fXa)
# T1 sequence (P00742 41-179 limits assumed): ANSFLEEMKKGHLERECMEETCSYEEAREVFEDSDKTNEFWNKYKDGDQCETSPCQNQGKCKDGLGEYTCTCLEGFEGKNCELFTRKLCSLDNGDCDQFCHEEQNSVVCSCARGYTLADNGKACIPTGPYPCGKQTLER
# T1 sequence (P00742 235-488 limits assumed): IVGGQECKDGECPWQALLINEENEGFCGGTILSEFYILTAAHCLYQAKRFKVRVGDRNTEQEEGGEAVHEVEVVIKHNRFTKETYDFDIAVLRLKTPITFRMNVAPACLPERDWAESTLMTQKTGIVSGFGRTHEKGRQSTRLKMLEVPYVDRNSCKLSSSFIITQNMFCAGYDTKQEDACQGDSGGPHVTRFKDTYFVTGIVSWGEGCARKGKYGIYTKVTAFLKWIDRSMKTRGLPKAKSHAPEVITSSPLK
# Prothrombin = Prothrombin (Homo sapiens, UniProt P00734); test: Binding affinity against thrombin
# Coagulation factor X [4] = target: T1, Coagulation factor X; test: Binding affinity against serine protease Coagulation factor X
# [5] = target: Coagulation factor X (Rattus norvegicus) (UniProt Q63207); test: Inhibitory activity against factor Xa in rat plasma
# Chain of Coagulation factor X (Rattus norvegicus) (Q63207 whole entry, looked up): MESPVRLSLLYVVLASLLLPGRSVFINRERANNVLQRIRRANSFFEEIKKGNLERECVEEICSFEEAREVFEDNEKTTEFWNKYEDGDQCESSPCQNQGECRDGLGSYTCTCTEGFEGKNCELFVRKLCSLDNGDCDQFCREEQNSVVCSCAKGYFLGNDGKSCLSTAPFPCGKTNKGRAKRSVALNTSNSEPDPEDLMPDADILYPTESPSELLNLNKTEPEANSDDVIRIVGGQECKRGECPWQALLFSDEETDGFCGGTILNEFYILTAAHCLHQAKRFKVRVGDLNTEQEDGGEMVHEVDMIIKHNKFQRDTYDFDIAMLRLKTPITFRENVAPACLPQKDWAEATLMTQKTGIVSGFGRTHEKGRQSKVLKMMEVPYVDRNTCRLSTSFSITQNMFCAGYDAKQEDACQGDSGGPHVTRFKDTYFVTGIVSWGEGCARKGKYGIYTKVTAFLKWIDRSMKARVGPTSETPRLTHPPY
# Chain of Vitamin K-dependent protein C (P04070 43-197 limits assumed): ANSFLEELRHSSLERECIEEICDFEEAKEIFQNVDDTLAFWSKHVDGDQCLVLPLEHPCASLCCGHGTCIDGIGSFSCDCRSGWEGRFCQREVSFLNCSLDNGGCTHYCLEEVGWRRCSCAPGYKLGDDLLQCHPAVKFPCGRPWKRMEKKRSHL
# Chain of Vitamin K-dependent protein C (P04070 212-461 limits assumed): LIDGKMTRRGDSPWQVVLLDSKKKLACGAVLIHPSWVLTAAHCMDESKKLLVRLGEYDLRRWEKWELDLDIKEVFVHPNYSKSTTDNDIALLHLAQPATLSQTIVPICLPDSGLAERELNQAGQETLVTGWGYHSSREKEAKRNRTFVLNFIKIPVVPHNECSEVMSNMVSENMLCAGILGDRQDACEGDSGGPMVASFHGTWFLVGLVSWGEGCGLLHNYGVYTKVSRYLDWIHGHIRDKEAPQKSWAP
# Chain of Serine protease 1 (P07477 whole entry): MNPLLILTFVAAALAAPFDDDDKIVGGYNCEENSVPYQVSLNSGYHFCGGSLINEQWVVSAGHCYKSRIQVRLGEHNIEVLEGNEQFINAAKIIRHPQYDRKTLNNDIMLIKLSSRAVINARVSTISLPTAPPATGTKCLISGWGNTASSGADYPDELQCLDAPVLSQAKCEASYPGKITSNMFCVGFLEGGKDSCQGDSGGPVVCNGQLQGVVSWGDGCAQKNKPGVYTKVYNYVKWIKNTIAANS
compound,measurement,setting,value
N=C(N)c1ccc(O)c(CN2CC[C@H](NS(=O)(=O)c3cc4ccnc(Cl)c4s3)C2=O)c1,Ki,[1],5.5 µM
same,Ki,Serine protease 1,> 2.9 µM
same,Ki,[2],7.5 µM
same,Ki,Plasminogen,7.3 µM
same,Ki,Coagulation factor X [3],0.005 µM
same,Ki,Prothrombin,2.6 µM
N=C(N)c1cccc(CN2CC[C@H](NS(=O)(=O)c3cc4ccc(Cl)nc4s3)C2=O)c1,Ki,Serine protease 1,> 2.9 µM
same,Ki,Coagulation factor X [4],0.12 µM
same,Ki,Prothrombin,> 4 µM
N=C(N)c1cccc(CN2CC[C@H](NS(=O)(=O)c3ccc4ccc(N)nc4c3)C2=O)c1,Ki,Serine protease 1,> 2.9 µM
same,Ki,Coagulation factor X [4],0.24 µM
same,Ki,Prothrombin,> 4 µM
N=C(N)c1cccc(CN2CC[C@H](NS(=O)(=O)c3ccc4c(N)nccc4c3)C2=O)c1,Ki,Serine protease 1,> 2.9 µM
same,Ki,Coagulation factor X [4],0.09 µM
same,Ki,Prothrombin,> 4 µM
COc1ccc2ccc(S(=O)(=O)N[C@H]3CCN(Cc4cc(C(=N)N)ccc4O)C3=O)cc2c1,Ki,[1],1.97 µM
same,Ki,Serine protease 1,0.305 µM
same,Ki,[2],1.07 µM
same,Ki,Plasminogen,2.35 µM
COc1ccc2sc(S(=O)(=O)N[C@H]3CCN(Cc4cc(C(=N)N)ccc4N)C3=O)cc2n1,Ki,[1],9.5 µM
same,Ki,Serine protease 1,0.86 µM
same,Ki,[2],> 8.7 µM
same,Ki,Plasminogen,> 7.3 µM
same,Ki,Coagulation factor X [3],0.005 µM
same,Ki,Prothrombin,0.21 µM
N=C(N)c1cccc(CN2CC[C@H](NS(=O)(=O)c3ccc4nc(Cl)ccc4c3)C2=O)c1,Ki,Serine protease 1,> 2.9 µM
same,Ki,Coagulation factor X [3],0.11 µM
same,Ki,Prothrombin,> 4 µM
N=C(N)c1cccc(CN2CC[C@H](NS(=O)(=O)c3ccc4ccnc(N)c4c3)C2=O)c1,Ki,Serine protease 1,> 2.9 µM
same,Ki,Coagulation factor X [4],0.49 µM
same,Ki,Prothrombin,> 4 µM
N=C(N)c1ccc(N)c(CN2CC[C@H](NS(=O)(=O)c3cc4nc(Cl)ccc4s3)C2=O)c1,Ki,[1],4.2 µM
same,Ki,Serine protease 1,1.8 µM
same,Ki,[2],> 8.7 µM
same,Ki,Plasminogen,1.5 µM
same,Ki,Coagulation factor X [3],0.003 µM
same,Ki,Prothrombin,1.1 µM
N=C(N)c1ccc(O)c(CN2CC[C@H](NS(=O)(=O)c3cc4ccncc4s3)C2=O)c1,Ki,[1],18 µM
same,Ki,Serine protease 1,> 2.9 µM
same,IC50,[5],0.011 µM
same,Ki,[2],> 8.7 µM
same,Ki,Plasminogen,6.2 µM
same,Ki,Coagulation factor X [4],0.002 µM
same,Ki,Prothrombin,2 µM
N=C(N)c1cccc(CN2CC[C@H](NS(=O)(=O)c3ccc4cccnc4c3)C2=O)c1,Ki,Serine protease 1,> 2.9 µM
same,Ki,Coagulation factor X [4],0.42 µM
same,Ki,Prothrombin,> 4 µM
N=C(N)c1ccc(O)c(CN2CC[C@H](NS(=O)(=O)c3cc4nc(Cl)ccc4s3)C2=O)c1,Ki,[1],11 µM
same,Ki,Serine protease 1,1.6 µM
same,Ki,[2],2.7 µM
same,Ki,Plasminogen,3.6 µM
same,Ki,Coagulation factor X [3],0.0015 µM
same,Ki,Prothrombin,0.92 µM
Cc1c(S(=O)(=O)N[C@H]2CCN(Cc3cccc(C(=N)N)c3)C2=O)sc2ccc(Cl)cc12,Ki,Coagulation factor X [4],0.036 µM
CCOc1ccc2cc(S(=O)(=O)N[C@H]3CCN(Cc4cccc(C(=N)N)c4)C3=O)ccc2n1,Ki,Serine protease 1,> 2.9 µM
same,Ki,Coagulation factor X [3],> 1.2 µM
same,Ki,Prothrombin,> 4 µM
N=C(N)c1cccc(CN2CC[C@H](NS(=O)(=O)c3cc4cccnc4s3)C2=O)c1,Ki,Serine protease 1,2.9 µM
same,Ki,Coagulation factor X [3],0.088 µM
same,Ki,Prothrombin,> 4 µM
N=C(N)c1cccc(CN2CC[C@H](NS(=O)(=O)c3ccc4cnccc4c3)C2=O)c1,Ki,Serine protease 1,> 2.9 µM
same,Ki,Coagulation factor X [4],0.38 µM
same,Ki,Prothrombin,> 4 µM
N=C(N)c1ccc(O)c(CN2CC[C@H](NS(=O)(=O)c3cc4cnccc4s3)C2=O)c1,Ki,[1],> 18 µM
same,Ki,Serine protease 1,> 2.9 µM
same,Ki,[2],8.7 µM
same,Ki,Plasminogen,> 7.3 µM
same,Ki,Coagulation factor X [3],0.003 µM
same,Ki,Prothrombin,2.6 µM
N=C(N)c1cccc(CN2CC[C@H](NS(=O)(=O)c3cc4ncccc4s3)C2=O)c1,Ki,[1],12 µM
same,Ki,Serine protease 1,> 2.9 µM
same,Ki,[2],> 8.7 µM
same,Ki,Plasminogen,> 7.3 µM
same,Ki,Coagulation factor X [3],0.026 µM
same,Ki,Prothrombin,> 4 µM
N=C(N)c1cccc(CN2CC[C@H](NS(=O)(=O)c3cc4c(Cl)nccc4s3)C2=O)c1,Ki,Serine protease 1,> 2.9 µM
same,Ki,Coagulation factor X [3],0.039 µM
same,Ki,Prothrombin,> 4 µM
N=C(N)c1cccc(CN2CC[C@H](NS(=O)(=O)c3ccc4ncccc4c3)C2=O)c1,Ki,Serine protease 1,> 2.9 µM
same,Ki,Coagulation factor X [3],0.2 µM
same,Ki,Prothrombin,> 4 µM
N=C(N)c1cccc(CN2CC[C@H](NS(=O)(=O)c3ccc4nc(N)ccc4c3)C2=O)c1,Ki,Serine protease 1,> 2.9 µM
same,Ki,Coagulation factor X [3],0.16 µM
same,Ki,Prothrombin,> 4 µM
N=C(N)c1cccc(CN2CC[C@H](NS(=O)(=O)c3ccc4ccc(Cl)nc4c3)C2=O)c1,Ki,Serine protease 1,> 2.9 µM
same,Ki,Coagulation factor X [4],0.72 µM
same,Ki,Prothrombin,> 4 µM
COc1ccc2ccc(S(=O)(=O)N[C@H]3CCN(Cc4cccc(C(=N)N)c4)C3=O)cc2n1,Ki,Serine protease 1,> 2.9 µM
same,Ki,Coagulation factor X [4],0.48 µM
same,Ki,Prothrombin,> 4 µM
N=C(N)c1cccc(CN2CC[C@H](NS(=O)(=O)c3ccc4ccncc4c3)C2=O)c1,Ki,Serine protease 1,> 2.9 µM
same,Ki,Coagulation factor X [4],0.51 µM
same,Ki,Prothrombin,> 4 µM
N=C(N)c1ccc(O)c(CN2CC[C@H](NS(=O)(=O)c3cc4c(Cl)nccc4s3)C2=O)c1,Ki,[1],8 µM
same,Ki,Serine protease 1,> 2.9 µM
same,Ki,[2],8.7 µM
same,Ki,Plasminogen,4.5 µM
same,Ki,Coagulation factor X [3],0.002 µM
same,Ki,Prothrombin,4 µM
N=C(N)c1cccc(CN2CC[C@H](NS(=O)(=O)c3ccc4cc(Cl)c(Cl)cc4c3)C2=O)c1,Ki,Coagulation factor X [4],~0.075 µM
N=C(N)c1cccc(CN2CC[C@H](NS(=O)(=O)c3cc4nc(Cl)ccc4s3)C2=O)c1,Ki,[1],> 18 µM
same,Ki,Serine protease 1,> 2.9 µM
same,Ki,[2],> 8.7 µM
same,Ki,Plasminogen,5.8 µM
same,Ki,Coagulation factor X [3],0.031 µM
same,Ki,Prothrombin,3.1 µM
N=C(N)c1ccc(O)c(CN2CC[C@H](NS(=O)(=O)c3cc4ncccc4s3)C2=O)c1,Ki,[1],5.2 µM
same,Ki,Serine protease 1,1 µM
same,Ki,[2],0.36 µM
same,Ki,Plasminogen,2.3 µM
same,Ki,Coagulation factor X [3],0.0007 µM
same,Ki,Prothrombin,4 µM
